The values that follow come from publication PMC4457528, “Identification of Novel Small Molecule Inhibitors of Oncogenic RET Kinase” (PLoS ONE, 2015).

Molecules are shown by their SMILES. Where two headings read alike, the source gives them in different places.

Common to all, as to test: KinomeScan kinase panel, single concentration 10 µM
Holding throughout (type): binding

In experiment [1] the target is T1, KinomeScan kinase panel (Homo sapiens, UniProt Q9UKI8).
T1 construct: purchased DiscoveRx (KinomeScan)
T1 sequence (Q9UKI8 1-766): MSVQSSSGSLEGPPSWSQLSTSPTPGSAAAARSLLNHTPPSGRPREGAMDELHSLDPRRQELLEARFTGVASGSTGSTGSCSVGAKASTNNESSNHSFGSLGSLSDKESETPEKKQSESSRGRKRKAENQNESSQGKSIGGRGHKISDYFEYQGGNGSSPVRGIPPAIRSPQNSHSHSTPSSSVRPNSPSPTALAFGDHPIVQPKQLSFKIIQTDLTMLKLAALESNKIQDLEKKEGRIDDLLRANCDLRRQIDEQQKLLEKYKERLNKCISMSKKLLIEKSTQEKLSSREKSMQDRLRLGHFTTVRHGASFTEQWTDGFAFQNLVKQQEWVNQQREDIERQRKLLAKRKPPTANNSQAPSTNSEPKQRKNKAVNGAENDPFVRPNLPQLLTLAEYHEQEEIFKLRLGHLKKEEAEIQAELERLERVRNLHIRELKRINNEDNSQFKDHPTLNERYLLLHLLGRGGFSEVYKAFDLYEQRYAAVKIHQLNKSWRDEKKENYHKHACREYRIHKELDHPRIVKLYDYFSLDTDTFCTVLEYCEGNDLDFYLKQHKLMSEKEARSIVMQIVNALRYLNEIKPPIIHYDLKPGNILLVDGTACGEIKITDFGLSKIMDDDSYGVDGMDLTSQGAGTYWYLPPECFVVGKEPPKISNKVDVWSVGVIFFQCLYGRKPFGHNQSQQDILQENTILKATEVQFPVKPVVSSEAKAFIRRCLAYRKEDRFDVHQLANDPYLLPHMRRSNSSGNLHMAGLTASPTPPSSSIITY
Conditions: read-out: score (%).

In experiment [2] the target is T2, KinomeScan kinase panel (Homo sapiens, UniProt P36888).
T2 construct: purchased DiscoveRx (KinomeScan)
T2 sequence (P36888 27-993): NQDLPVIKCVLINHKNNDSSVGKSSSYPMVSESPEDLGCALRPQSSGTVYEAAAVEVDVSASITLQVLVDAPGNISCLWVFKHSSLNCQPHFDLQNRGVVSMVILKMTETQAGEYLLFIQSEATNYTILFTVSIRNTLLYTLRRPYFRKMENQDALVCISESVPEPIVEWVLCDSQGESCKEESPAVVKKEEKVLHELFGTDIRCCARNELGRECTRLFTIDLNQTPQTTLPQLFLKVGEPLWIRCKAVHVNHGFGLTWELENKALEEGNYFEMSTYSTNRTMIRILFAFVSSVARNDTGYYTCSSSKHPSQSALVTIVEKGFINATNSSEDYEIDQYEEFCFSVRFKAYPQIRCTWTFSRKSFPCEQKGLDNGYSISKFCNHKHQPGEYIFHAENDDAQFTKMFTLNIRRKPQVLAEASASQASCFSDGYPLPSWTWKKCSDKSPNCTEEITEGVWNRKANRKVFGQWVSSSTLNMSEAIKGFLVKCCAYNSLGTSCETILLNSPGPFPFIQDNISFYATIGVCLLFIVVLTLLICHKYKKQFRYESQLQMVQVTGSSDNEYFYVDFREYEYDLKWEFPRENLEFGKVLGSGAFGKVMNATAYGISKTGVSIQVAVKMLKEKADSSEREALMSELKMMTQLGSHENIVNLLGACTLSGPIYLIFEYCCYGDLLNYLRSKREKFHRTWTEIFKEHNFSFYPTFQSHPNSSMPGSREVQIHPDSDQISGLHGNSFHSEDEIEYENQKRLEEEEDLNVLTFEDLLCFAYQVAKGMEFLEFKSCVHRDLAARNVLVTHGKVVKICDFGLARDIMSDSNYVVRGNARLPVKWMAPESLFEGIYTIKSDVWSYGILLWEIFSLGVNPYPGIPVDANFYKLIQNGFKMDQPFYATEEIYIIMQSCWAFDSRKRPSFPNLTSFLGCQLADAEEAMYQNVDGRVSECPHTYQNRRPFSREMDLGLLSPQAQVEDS
Conditions: FLT3, 10 µM; read-out: score (%).

The target in experiment [3] is T3, KinomeScan kinase panel (Homo sapiens, UniProt P07949, M918T).
T3 construct: purchased DiscoveRx (KinomeScan)
T3 sequence (P07949 29-1114 M918T): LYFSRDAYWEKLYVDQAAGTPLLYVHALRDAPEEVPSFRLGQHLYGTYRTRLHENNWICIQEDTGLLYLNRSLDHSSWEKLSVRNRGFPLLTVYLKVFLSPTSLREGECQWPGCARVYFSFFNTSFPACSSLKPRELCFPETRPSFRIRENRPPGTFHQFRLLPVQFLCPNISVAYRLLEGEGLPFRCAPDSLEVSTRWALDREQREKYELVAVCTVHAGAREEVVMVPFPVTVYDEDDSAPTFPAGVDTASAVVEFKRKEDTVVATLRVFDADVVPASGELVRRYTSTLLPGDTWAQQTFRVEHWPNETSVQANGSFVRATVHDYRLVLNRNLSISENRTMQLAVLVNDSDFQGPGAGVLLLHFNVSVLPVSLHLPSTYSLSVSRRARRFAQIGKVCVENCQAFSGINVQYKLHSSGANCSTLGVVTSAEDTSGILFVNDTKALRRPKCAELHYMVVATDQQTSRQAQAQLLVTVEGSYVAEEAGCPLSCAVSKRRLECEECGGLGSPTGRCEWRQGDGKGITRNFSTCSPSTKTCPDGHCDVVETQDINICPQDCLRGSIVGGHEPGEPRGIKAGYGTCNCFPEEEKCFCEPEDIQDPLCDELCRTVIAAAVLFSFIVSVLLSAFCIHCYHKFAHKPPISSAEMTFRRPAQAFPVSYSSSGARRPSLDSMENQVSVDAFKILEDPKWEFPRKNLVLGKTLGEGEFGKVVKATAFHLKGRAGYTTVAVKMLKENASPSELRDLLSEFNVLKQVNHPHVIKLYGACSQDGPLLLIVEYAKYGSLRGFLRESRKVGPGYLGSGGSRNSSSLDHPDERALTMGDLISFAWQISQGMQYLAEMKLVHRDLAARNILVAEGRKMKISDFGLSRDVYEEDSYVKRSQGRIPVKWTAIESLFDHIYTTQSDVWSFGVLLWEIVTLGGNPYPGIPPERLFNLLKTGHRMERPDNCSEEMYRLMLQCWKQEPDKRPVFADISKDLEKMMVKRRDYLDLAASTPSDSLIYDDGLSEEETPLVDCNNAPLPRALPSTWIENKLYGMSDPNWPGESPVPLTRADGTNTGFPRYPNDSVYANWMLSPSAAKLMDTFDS
Conditions: read-out: score (%).

Experiment [4] deals with T4, KinomeScan kinase panel (Homo sapiens, UniProt P42336).
T4 construct: purchased DiscoveRx (KinomeScan)
T4 sequence (P42336 whole entry): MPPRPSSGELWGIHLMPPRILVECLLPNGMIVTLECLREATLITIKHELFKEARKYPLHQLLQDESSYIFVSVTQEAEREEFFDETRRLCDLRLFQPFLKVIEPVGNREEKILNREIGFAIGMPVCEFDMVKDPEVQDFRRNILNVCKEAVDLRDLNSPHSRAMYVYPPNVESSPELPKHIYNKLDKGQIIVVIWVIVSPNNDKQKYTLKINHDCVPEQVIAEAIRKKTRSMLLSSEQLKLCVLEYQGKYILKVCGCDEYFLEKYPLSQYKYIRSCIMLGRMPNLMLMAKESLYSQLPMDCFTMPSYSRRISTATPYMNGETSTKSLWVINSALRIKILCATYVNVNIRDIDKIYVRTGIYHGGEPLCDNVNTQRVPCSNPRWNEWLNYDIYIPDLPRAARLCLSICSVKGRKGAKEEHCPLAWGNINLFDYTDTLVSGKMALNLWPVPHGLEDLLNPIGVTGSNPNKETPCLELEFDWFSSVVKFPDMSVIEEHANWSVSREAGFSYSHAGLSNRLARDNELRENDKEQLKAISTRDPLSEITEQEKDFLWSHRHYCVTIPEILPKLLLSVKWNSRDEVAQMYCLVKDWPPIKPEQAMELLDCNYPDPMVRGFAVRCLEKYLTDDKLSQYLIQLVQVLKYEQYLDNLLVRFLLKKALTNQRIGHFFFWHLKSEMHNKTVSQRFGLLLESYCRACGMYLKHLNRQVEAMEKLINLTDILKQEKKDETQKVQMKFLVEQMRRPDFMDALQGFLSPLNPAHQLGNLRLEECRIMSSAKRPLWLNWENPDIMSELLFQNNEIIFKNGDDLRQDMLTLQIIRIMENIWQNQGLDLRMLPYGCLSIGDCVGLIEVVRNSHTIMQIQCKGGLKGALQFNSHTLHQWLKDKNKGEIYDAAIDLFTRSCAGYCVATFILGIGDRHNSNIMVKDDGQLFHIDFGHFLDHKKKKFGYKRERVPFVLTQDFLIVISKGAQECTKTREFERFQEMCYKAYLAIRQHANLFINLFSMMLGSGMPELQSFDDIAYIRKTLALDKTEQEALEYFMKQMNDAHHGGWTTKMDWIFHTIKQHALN
Conditions: PIK3CA, 10 µM; read-out: score (%).

Experiment [5] addresses T5, KinomeScan kinase panel (Homo sapiens, UniProt Q9UF33).
T5 construct: purchased DiscoveRx (KinomeScan)
T5 sequence (Q9UF33 23-1036): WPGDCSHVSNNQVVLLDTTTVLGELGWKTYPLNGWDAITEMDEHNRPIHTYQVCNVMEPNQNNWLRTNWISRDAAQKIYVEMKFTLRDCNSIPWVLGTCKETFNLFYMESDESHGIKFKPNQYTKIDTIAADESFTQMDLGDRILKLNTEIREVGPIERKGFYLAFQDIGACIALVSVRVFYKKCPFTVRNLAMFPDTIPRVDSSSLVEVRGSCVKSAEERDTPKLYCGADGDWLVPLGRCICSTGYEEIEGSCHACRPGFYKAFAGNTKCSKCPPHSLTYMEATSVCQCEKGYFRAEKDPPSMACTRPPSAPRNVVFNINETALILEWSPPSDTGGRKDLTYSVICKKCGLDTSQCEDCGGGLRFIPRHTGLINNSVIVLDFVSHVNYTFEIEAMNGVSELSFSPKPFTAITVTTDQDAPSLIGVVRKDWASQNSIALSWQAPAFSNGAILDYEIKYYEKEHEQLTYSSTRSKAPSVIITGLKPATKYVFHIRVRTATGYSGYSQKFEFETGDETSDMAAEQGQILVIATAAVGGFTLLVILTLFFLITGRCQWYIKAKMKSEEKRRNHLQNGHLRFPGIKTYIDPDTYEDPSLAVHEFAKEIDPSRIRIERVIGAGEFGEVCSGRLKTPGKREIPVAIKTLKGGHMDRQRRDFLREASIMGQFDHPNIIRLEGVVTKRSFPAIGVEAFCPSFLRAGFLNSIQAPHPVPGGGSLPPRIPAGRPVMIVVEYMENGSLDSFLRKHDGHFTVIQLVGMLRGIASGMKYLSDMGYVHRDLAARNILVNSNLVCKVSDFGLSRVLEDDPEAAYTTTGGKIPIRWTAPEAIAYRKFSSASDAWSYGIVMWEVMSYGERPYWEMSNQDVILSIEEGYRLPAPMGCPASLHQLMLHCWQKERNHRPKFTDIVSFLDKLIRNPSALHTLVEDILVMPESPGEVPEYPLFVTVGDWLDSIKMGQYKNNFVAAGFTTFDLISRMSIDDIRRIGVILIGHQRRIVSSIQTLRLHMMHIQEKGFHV
Particulars: EPHA6, 10 µM; read-out: score (%).

On to `CCN1CCN(Cc2ccc(NC(=O)c3ccc(C)c(NC(=O)c4cncc(-c5cccs5)c4)c3)cc2C(F)(F)F)CC1` [ALW-II-41-27], for which the remaining binding at 10 µM is over 30% at KinomeScan kinase panel [1] (kinase TLK1, 10 µM); 0.65% at KinomeScan kinase panel [2]; 0% at KinomeScan kinase panel [3]; over 30% on KinomeScan kinase panel [4]; 28% on KinomeScan kinase panel [5].

On to `CCN1CCN(Cc2ccc(NC(=O)c3ccc(C)c(/C=C/c4cnc5[nH]ccc5c4Cl)c3)cc2C(F)(F)F)CC1` [HG-6-63-01, (E)-3-(2-(4-chloro-1H-pyrrolo[2,3-b]pyridin-5-yl)vinyl)-N-(4-((4-ethylpiperazin-1-yl)methyl)-3-(trifluoromethyl)phenyl)-4-methylbenzamide], for which the remaining binding at 10 µM is over 30% on KinomeScan kinase panel [1] (TLK1, 10 µM); 0.1% on KinomeScan kinase panel [2]; 0% at KinomeScan kinase panel [3] (RET(M918T), 10 µM); over 30% on KinomeScan kinase panel [4]; 6.7% on KinomeScan kinase panel [5].

As for `CCN1CCN(Cc2ccc(NC(=O)c3ccc(C)c(C#Cc4cccnc4)c3)cc2C(F)(F)F)CC1` [XMD15-44], the remaining binding at 10 µM is 93% at KinomeScan kinase panel [1] (kinase TLK1, 10 µM); 0.25% at KinomeScan kinase panel [2]; 0% at KinomeScan kinase panel [3] (kinase RET(M918T), 10 µM); 100% on KinomeScan kinase panel [4]; 0% at KinomeScan kinase panel [5].
